Laboratory results published in patent US20120012499A1, “TABLET FORMULATION” (Novo Nordisk A/S, priority 2006, published 2012).
In brackets after ≈: the same amount, converted by molar mass.

Test: solubility of drug substance in pH 5.0 buffer solution
Format: physicochemical
Conditions: aqueous buffer

- solubility: 9 µg/mL (≈ 19.9 µM)
SMILES: CCOc1cc(CC(=O)N[C@@H](CC(C)C)c2ccccc2N2CCCCC2)ccc1C(=O)O [repaglinide, (S)-2-Ethoxy-4-[2-[[3-methyl-1-[2-(1-piperidinyl)phenyl]butyl]amino]-2-oxoethyl]benzoic acid]
